# Measured values reported in article PMC3164901 (European journal of medicinal chemistry, 2011).
# Structures can show the parent of a compound that is named as a salt.
# Tests used:
# [1] = target: recombinant human PED10A (Homo sapiens, UniProt Q9Y233); test: PDE10A enzyme assay, [3H]cAMP scintillation proximity assay; assay type: biochemical
# [2] = tested on: rats; conditions: ref [8]; cited from earlier work
# [3] = tested on: rats; conditions: ref [8], cited from earlier work
# [4] = ref [24]; cited from earlier work
# [5] = tested on: rat; conditions: ref [23]; cited from earlier work
# [6] = target: PDE3B (Homo sapiens, UniProt Q13370); test: PDE3B enzyme assay, [3H]cAMP SPA; assay type: biochemical
# Sequence of PDE3B (Q13370 whole entry, species assumed): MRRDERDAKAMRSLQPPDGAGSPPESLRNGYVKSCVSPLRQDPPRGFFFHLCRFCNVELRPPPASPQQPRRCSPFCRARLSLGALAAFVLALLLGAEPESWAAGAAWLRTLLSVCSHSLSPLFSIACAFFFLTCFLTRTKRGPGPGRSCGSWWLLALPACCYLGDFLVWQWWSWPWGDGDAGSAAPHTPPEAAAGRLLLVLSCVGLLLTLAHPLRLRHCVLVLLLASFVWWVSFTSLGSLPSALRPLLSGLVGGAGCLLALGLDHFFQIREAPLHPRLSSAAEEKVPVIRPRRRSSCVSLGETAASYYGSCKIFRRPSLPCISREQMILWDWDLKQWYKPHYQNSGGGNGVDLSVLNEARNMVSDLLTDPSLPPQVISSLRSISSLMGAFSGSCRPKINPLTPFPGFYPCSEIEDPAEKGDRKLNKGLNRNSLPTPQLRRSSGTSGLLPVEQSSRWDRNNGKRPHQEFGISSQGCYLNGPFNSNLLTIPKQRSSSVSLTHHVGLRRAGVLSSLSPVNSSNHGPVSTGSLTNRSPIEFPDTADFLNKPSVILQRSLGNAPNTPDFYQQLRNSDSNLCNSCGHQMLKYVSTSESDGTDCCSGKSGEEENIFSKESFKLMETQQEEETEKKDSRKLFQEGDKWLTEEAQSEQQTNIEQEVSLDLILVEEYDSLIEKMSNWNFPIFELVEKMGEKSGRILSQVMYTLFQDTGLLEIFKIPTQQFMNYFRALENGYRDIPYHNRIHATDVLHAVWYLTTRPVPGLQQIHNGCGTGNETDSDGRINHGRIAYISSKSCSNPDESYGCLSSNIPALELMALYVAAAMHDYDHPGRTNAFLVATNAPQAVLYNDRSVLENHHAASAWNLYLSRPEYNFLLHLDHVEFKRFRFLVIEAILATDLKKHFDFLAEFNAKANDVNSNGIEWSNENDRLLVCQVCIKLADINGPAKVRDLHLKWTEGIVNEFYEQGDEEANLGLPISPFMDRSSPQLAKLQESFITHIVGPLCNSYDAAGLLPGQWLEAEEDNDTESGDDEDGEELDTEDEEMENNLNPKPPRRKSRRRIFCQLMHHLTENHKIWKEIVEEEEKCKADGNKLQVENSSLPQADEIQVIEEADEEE
# [7] = target: PDE3A (Homo sapiens, UniProt Q14432); test: PDE3A enzyme assay, [3H]cAMP SPA; assay type: biochemical
# Sequence of PDE3A (Q14432 whole entry, species assumed): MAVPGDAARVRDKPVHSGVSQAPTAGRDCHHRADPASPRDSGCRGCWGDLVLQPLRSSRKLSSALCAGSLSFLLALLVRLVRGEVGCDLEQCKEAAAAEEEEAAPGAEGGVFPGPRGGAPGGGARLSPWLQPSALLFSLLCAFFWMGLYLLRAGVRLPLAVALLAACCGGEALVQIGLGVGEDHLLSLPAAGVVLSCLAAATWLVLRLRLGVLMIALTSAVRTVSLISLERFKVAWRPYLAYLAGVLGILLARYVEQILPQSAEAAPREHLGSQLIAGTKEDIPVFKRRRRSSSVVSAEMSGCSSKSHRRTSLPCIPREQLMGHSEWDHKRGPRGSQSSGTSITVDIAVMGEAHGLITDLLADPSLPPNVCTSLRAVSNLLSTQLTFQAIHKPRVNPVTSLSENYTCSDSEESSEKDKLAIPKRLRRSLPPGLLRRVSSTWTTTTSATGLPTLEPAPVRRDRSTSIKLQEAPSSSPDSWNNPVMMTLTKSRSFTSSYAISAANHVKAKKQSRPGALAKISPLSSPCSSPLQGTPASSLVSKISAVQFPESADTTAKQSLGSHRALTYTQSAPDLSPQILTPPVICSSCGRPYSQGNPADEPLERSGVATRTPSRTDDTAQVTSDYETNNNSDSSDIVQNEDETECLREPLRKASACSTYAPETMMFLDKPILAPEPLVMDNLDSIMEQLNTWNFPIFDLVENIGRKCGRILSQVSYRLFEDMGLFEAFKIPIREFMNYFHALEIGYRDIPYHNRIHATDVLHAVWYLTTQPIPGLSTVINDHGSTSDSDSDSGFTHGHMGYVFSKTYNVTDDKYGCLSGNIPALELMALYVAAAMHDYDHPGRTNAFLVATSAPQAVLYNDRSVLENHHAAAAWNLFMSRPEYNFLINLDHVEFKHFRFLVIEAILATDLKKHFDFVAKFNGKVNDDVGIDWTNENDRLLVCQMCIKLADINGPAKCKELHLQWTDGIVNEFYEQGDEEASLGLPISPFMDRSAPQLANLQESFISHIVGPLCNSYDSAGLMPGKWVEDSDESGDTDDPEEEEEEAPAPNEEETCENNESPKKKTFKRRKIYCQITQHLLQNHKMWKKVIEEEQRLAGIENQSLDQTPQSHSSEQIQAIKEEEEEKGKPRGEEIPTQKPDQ
# Sequence of recombinant human PED10A (Q9Y233 whole entry): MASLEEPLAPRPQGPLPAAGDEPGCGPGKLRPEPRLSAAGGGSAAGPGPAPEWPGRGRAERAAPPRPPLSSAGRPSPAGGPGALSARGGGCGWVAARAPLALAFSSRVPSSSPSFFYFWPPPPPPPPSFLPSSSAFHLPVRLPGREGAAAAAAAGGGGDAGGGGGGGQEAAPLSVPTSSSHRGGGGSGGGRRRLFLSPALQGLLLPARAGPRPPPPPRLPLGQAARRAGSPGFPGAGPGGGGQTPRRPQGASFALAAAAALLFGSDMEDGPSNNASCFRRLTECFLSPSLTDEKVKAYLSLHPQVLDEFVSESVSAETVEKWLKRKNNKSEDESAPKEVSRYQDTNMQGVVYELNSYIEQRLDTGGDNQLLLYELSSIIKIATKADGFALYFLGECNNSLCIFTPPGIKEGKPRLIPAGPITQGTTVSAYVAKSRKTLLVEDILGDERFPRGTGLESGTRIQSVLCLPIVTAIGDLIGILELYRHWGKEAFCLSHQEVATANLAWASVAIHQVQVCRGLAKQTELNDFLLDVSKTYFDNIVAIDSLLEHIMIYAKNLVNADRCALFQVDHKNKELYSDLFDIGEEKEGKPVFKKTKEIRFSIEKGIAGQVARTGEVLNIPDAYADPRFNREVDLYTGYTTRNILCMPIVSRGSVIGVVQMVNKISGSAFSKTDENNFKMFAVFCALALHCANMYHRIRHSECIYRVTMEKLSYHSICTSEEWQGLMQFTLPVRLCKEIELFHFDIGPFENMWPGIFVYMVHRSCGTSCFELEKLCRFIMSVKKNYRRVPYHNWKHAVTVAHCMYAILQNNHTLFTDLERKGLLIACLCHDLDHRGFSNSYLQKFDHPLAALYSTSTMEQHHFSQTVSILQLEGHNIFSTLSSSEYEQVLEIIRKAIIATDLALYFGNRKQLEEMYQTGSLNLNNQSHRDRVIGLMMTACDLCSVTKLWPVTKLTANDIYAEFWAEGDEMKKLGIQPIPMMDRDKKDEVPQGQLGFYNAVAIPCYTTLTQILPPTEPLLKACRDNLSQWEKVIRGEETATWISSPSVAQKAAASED
smiles,measurement,setting,value
"COc1cc(Cc2nccc3cc(OC)c(OCCF)cc23)cc(OC)c1 [6l, 1-(3,5-Dimethoxybenzyl)-7-(2-fluoroethoxy)-6-methoxyisoquinoline oxalate]",IC50,[1],0.262 ± 0.0011 µM
"COc1cc2ccnc(Cc3ccc(OCCOCCF)c(OC)c3)c2cc1OC.O=C(O)C(=O)O [8c, 1-(4-(2-(2-Fluoroethoxy)ethoxy)-3-methoxybenzyl)-6,7-dimethoxyisoquinoline oxalate]",increase of PDE10A affinity versus 8b,[1]; 4-fluoroethoxy extended to 4-(2-(2-fluoroethoxy))ethoxy,2 fold
Cn1cc(-c2ccncc2)c(-c2ccc(OCc3ccc4ccccc4n3)cc2)n1 [MP-10],hyperactivity induced by phenylcyclohexylpiperidine (PCP) and amphetamine,[2],able to reduce hyperactivity
COc1cc2ncnc(C3CC[C@H](Oc4cnc5ccccc5n4)C3)c2cc1OC (stereo partly shown) [PQ-10],hyperactivity induced by phenylcyclohexylpiperidine (PCP) and amphetamine,[2],able to reduce hyperactivity
"COc1ccc(Cc2nccc3cc(OC)c(OC)cc23)cc1OC [Papaverine, 1-(3,4-dimethoxybenzyl-6,7-dimethoxy)isoquinoline]",catalepsy on its own,[3]; compound alone,did not cause catalepsy on its own
same,effect on cataleptic effect of the D2 receptor antagonist haloperidol,[3]; with haloperidol,potentiated the cataleptic effect
same,in vivo metabolism,[4],rapid in vivo metabolism
same,efficacy in novel object recognition,[5],shown efficacy
same,hyperactivity induced by phenylcyclohexylpiperidine (PCP) and amphetamine,[2],able to reduce hyperactivity
FC(F)(F)Cn1cc(-c2ccncc2)c(-c2ccc(OCc3ccc4ccccc4n3)cc2)n1 [TP-10],hyperactivity induced by phenylcyclohexylpiperidine (PCP) and amphetamine,[2],able to reduce hyperactivity
"COc1ccc(Cc2ncnc3cc(OC)c(OC)cc23)cc1 [compound 11, 6,7-Dimethoxy-4-(4-methoxybenzyl)quinazoline oxalate]",IC50,[6],3.1 ± 0.27 µM
same,IC50,[1],0.0488 ± 0.00107 µM
same,IC50,[7],3.98 ± 0.51 µM
